Test results from patent US7037901B1, “Radiosensitization by indolocarbazole derivatives” (priority 2001, dated 2006).

Legend:
[1] = target: T1, purified human TOP1 (Homo sapiens, UniProt P11387); assay: In vitro drug-stimulated TOP1 cleavage assay (pHOT1 plasmid nicking); type: biochemical; design: key to TOP1-mediated DNA cleavage: +++: high activity; ++: modest activity; +: low activity; details: for TOP1-mediated DNA cleavage: in vitro, based on FIG. 4B and 4C; for Potency in inducing TOP1-mediated DNA cleavage (nicking of pHOT1): purified human TOP1, FIG. 4, 4C
T1 construct: purchased TopoGEN, Inc. (Columbus, Ohio)
T1 sequence (P11387 1-765): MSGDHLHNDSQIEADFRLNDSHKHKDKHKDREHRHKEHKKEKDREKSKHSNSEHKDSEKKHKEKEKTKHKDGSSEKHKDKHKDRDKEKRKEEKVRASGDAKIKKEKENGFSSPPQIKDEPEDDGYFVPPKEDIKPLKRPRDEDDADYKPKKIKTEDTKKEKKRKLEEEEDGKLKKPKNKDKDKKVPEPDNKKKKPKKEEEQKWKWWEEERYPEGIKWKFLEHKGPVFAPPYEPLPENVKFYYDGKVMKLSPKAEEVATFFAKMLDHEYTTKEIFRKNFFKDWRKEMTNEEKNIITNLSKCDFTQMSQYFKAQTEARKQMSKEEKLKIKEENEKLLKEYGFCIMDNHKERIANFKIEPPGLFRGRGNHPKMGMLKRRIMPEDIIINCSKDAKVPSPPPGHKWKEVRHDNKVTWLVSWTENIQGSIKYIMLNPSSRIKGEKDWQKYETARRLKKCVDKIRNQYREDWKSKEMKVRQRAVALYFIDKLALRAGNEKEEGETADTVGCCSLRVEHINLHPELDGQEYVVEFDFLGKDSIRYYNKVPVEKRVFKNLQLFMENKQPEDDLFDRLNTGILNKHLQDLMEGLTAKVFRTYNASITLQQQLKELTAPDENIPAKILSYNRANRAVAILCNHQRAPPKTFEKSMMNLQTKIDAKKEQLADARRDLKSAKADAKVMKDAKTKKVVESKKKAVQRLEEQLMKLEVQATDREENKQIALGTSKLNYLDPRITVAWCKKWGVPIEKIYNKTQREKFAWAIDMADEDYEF
Description: In vitro drug-stimulated TOP1 cleavage assay. Drug-stimulated DNA cleavage assay using purified human TOP1 was performed according to the protocol provided by TopoGEN Inc. (Columbus, Ohio) with modifications.
Briefly, supercoiled pHOT1 plasmid DNA (0.2 μg) was incubated with 1 unit of human TOP1 in cleavage buffer (50 mM Tris, pH 7.8, 50 mM KCl, 10 mM MgCl2, 1 mM dithiothreitol, 1 mM EDTA) in the presence of varying concentrations of the drug under study. Following a 30-min incubation at 37° C., the reactions were terminated by adding SDS to 1.0% and proteinase K to 200 μg/ml. The proteinase K treatment continued at 37° C. for 1 h. The sample was then mixed with loading dye (containing sucrose and bromphenol blue) and separated in 1% agarose gel in 0.08 M Tris-phosphate, 0.008 M EDTA, pH 8.0 buffer at room temperature for 16 h.
The gel was initially stained with ethidium bromide ([…]), washed and photographed under UV light. In order to separate the “nicked” from the “relaxed” DNA population, the gel was further run for 4 h in the presence of ethidium bromide before being photographed again under UV light. The photograph was scanned and the intensity of the nicked DNA of each lane was measured using the ImageJ program obtained from the National Institutes of Health (web site: rsb.info.nih.gov/ij/). The intensity of the nicked band of each lane was plotted after the background intensity (pHOT1+TOP1 lane) was subtracted.

[2] = tested on: human breast cancer MCF-7 cells; assay: Clonogenic survival assay with radiation (radiosensitization) in MCF-7 cells; type: cell-based; details: for ER (SER per footnote c, sensitization enhancement ratio): 2 μg/ml 1 h before radiation, at 10% survival; for Dq (width of the shoulder of the radiation survival curve): SHMT model fit, FIG. 3B; for Induction of RS / enhancement of radiocytotoxicity: one-hour preincubation with 2 μg/ml, FIG. 2; for RT dose (Gy) at 10% survival: pre-treated 2 μg/ml 1 h, rinsed, then radiation; for Enhancement of radiocytotoxicity: 10 μg/ml (data not shown)
Description: (§1) Clonogenic Survival Assay. […] 18–24 h prior to experimental studies.
(§2) Colonies consisting of >50 cells were counted.
(§3) Irradiation of Cells. Drug-treated and control cells in medium were irradiated using a cobalt-60 source (Eldorado 8; Theratronics, Canada) at a dose rate of 105 cGy/min.
(§4) Analysis of Survival Curves. Survival curves were corrected for cytotoxicity induced by drug alone treatment. Sensitization enhancement ratios (SERs) and standard deviations for survival curves were determined at 10% cell survival. Each SER was calculated by dividing the radiation dose to induce 10% cell survival in the absence of radiosensitizer with the radiation dose to induce 10% cell survival in the presence of radiosensitizer.
The updated programs developed by Dr. N. Albright (San Rafael, Calif.) (Albright, N., Radiat. Res., 112:331–340 (1987)) were used for curve fitting for MCF-7 cells with the linear quadratic (LQ) and the single hit multi-target (SHMT) models. Both the LQ and SHMT models gave qualitatively good fits. The fit with the SHMT model was used for the present study.

[3] = target: T2, covalent topoisomerase-DNA cross-links in CHO cells (Cricetulus griseus, UniProt Q07050, S505G); assay: In vivo K+-SDS co-precipitation assay for protein-DNA cross-links; type: cell-based, Chinese hamster; design: key to Protein-DNA cross-links: +++: high activity; ++: modest activity; +: low activity; details: 30-min drug treatment, based on FIG. 5
T2 construct: endogenous in cells; host or cells: Chinese hamster ovary CHO cells
T2 sequence (Q07050 2-767 S505G): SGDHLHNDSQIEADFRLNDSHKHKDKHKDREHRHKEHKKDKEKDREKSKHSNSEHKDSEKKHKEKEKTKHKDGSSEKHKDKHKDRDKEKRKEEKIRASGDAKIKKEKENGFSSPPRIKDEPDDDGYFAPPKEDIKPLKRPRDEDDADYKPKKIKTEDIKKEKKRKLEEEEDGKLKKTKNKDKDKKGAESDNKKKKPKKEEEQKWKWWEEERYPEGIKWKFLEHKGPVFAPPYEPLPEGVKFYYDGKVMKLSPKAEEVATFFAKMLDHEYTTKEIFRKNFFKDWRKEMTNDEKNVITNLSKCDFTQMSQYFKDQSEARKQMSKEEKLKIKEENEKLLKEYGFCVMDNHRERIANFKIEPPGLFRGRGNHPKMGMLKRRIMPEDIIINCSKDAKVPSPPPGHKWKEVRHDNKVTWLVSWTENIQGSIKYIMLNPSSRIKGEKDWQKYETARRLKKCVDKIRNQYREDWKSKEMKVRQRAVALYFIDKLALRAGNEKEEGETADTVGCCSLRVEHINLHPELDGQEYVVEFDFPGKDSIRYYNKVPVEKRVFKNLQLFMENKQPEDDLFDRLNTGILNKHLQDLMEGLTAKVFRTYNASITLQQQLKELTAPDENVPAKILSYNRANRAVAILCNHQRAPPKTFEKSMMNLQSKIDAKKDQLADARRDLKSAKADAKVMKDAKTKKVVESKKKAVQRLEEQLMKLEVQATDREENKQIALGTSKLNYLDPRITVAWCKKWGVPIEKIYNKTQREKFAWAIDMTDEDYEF
Description: In vivo K^+-SDS co-precipitation assay for protein-DNA cross-links. The K^+-SDS co-precipitation assay as described previously (Chen, Y. N., et al., J. Biol. Chem., 265:10073–10080 (1990)) was used to quantify the formation of covalent topoisomerase-DNA cross-links in drug-treated cells.
Briefly, the DNA in logarithmic growing Chinese hamster CHO cells was overnight-labeled in medium containing 1 μCi/ml of [mehtyl-^3H] thymidine. These cells were then trypsinized and diluted in fresh medium before aliquoted into a 24-well plate. After overnight incubation, the labeled cells were treated with various concentrations of drugs for 30 min, washed with phosphate-buffered saline once, and lysed by adding 1 ml of prewarmed lysis solution (1.25% SDS, 5 mM EDTA, 0.4 mg/ml salmon sperm DNA, pH 8.0, 65° C.).
Following shearing chromosomal DNA by passing the lysate through a 19-gauge needle, the sample was transferred to a tube containing 0.25 ml of 325 mM KCl. The sample was vortexed vigorously for 10 s, cooled on ice for 10 min and centrifuged at 3000 rpm for 10 min at 4° C.
The pellet was then resuspended in 1 ml of a wash solution (100 mM KCl, 1 mM EDTA, 0.1 mg/ml salmon sperm DNA, 10 mM Tris-HCl, pH 8.0) and placed at 65° C. for 10 min with occasional mixing. The sample was again cooled on ice for 10 min and centrifuged at 3000 rpm for 10 min at 4° C. After the pellet from each sample was washed again, the pellet was finally resuspended in 0.2 ml of 65° C. water and added to 5 ml of scintillation fluid to determine radioactive counts.
The background precipitable counts were obtained by treating the lysate with proteinase K (400 μg/ml) at 65° C. for 2 h. Data are arithmetic means (±SD) of three determinations, and the background counts have been subtracted.

[4] = tested on: human MCF-7 and Chinese hamster DC3F cells; assay: RS activity summary (MCF-7 and DC3F cells); type: cell-based; design: key: +: possess RS activity; −: possess no RS activity; details: MCF-7 (FIG. 2) and DC3F cells (Table 4)
Description: as §1, §2, §3, §4

Compound | TOP1-mediated DNA cleavage [1] | Potency in inducing TOP1-mediated DNA cleavage (nicking of pHOT1) [1] | ER (SER per footnote c, sensitization enhancement ratio) [2] | Dq (width of the shoulder of the radiation survival curve) [2] | Induction of RS / enhancement of radiocytotoxicity [2] | RT dose (Gy) at 10% survival [2] | Protein-DNA cross-links [3] | RS (radiosensitization activity) [4] | Enhancement of radiocytotoxicity [2]
CO[C@H]1[C@H](O)[C@@H](O)[C@H](n2c3c(Cl)cccc3c3c4c(c5c6cccc(Cl)c6[nH]c5c32)C(=O)NC4=O)O[C@@H]1CO [F1, rebeccamycin] | + | less potent group | 1.9 | drastically reduced | induction of RS was observed | 3.8 Gy | ++ | + | 
COC1C(CO)OC(n2c3ccccc3c3c4c(c5c6ccccc6[nH]c5c32)C(=O)OC4=O)C(O)C1O (stereo not drawn) [F5] | + | less potent group | 1.7 | drastically reduced | induction of RS was observed | 4.2 Gy | + | + | 
COC1C(CO)OC(n2c3ccccc3c3c4c(c5c6ccccc6[nH]c5c32)C(=O)N(O)C4=O)C(O)C1O (stereo not drawn) [F7] | +++ | equivalent activity as camptothecin | 1.7 | drastically reduced | induction of RS was observed | 4.2 Gy | ++ | + | 
COC1C(CO)OC(n2c3c(Cl)cccc3c3c4c(c5c6cccc(Cl)c6[nH]c5c32)C(=O)N(C)C4=O)C(O)C1O (stereo not drawn) [F43] | + | less potent group | 1.0 |  | do not enhance radiocytotoxicity | 7.0 Gy | + | − | do not enhance radiocytotoxicity
COC1C(CO)OC(n2c3ccccc3c3c4c(c5c6ccccc6[nH]c5c32)C(=O)N(C)C4=O)C(O)C1O (stereo not drawn) [F44] | ++ | less potent group | 1.0 |  | do not enhance radiocytotoxicity | 6.9 Gy | ++ | − | do not enhance radiocytotoxicity
COC1C(CO)OC(n2c3ccccc3c3c4c(c5c6ccccc6[nH]c5c32)C(=O)NC4=O)C(O)C1O (stereo not drawn) [F71] | +++ | equivalent activity as camptothecin | 1.0 |  | do not enhance radiocytotoxicity | 7.2 Gy | +++ | − | do not enhance radiocytotoxicity
